Experimental findings from patent US10226433B2, “Use of cannabinoids in the treatment of degenerative skeletal muscle diseases” (GW Research Limited, priority 2014, dated 2019) are described below.

Each structure is given as a SMILES string.

Test [1] concerns Mouse C2C12 myoblasts. Put plainly: C2C12 myoblast differentiation, qPCR of Myog and Tnnt-1 mRNA. The format is cell-based. The settings on record: 24 h in DM, C2C12 cells, vs vehicle. Here is the method: (§1) Mouse C2C12 myoblasts were propagated in a growth medium (GM) composed of Dulbecco's modified Eagle's medium supplemented with 10% fetal bovine serum (FBS), 50 U/ml penicillin plus 50 μg/ml streptomycin, and 1% L-glutamine (Invitrogen, Milan, Italy), in a humidified atmosphere of 95% air/5% CO2 at 37° C.
(§2) Exposure of proliferating C2C12 cells for 24 to 72 h to a lower (from 10% to 0.1%) FBS concentration, plus the addition of 5 μg/ml insulin and 5 μg/ml transferrin (differentiation medium, DM), induced their differentiation into myotubes.
(§3) Total RNA was isolated from […] by use of the TRI-Reagent (Life Technology, Milan, Italy), reacted with DNase-I (1 U/μl; Sigma-Aldrich) following the manufacturer's instructions, and then quantified by spectrophotometric analysis.
[…]. Final preparation of RNA was considered DNA- and protein-free if the ratio between readings at 260/280 nm was >1.7. The purified mRNA was reverse-transcribed by use of reverse transcriptase (enzyme-VILO) (Life Technology, Milan, Italy). Quantitative real-time PCR was carried out in CFX384 real time
(§4) PCR detection system (Bio-Rad, Segrate MI, Italy) with specific primers by the use of SYBR Green detection (Bio-Rad, Segrate MI, Italy). Samples were amplified simultaneously in quadruplicate in one-assay run with a non-template control blank for each primer pair to control for contamination or primer-dimers formation, and the ct (cycle threshold) value for each experimental group was determined.
(§5) The housekeeping genes (the ribosomal protein S16) has been used as an internal control to normalize the ct values, using the 2-dCt formula; differences in mRNA content between groups were as expressed as 2-ddct, as previously described (Iannotti et al. 2013)
In order to gain information about the potential effects of phytocannabinoids on myoblast differentiation, C2C12 cells were induced to differentiate for 24-48 h in DM in the presence or absence of various phytocannabinoids.
qPCR analysis was then utilized to evaluated the expression level of the canonical developmentally regulated skeletal markers Myog and Tnnt-1.
On the technique in general: In qPCR the cycle at which signal appears reflects the starting amount.

Test [2] deals with Primary human satellite cells (SC). Put plainly: Human satellite cell differentiation, qPCR of Myog, Tnnt-1 and MyHC mRNA. The settings on record: 5 days of SC exposure to DM, vs vehicle. It is filed as cell-based. On the procedure: (§6) Primary human satellite cells (SC) were purchased from Innoprot Inc (Bizkaia-Spain) and propagated in a growth medium (GM) which contains essential and non-essential amino acids, vitamins, organic and inorganic compounds, hormones, growth factors, trace minerals and a low concentration of fetal bovine serum (5%) (Innoprot lnc/Bizkaia-Spain) in a humidified atmosphere of 95% air/5% CO2 at 37° C.
(§7) Exposure of proliferating satellite cells 4-5 days to a lower (from 10% to 0.1%) FBS concentration, plus the addition of 5 μg/ml insulin and 5 μg/ml transferrin (differentiation medium, DM), induced their differentiation into myotubes.
As described in Example 1
To further investigate the effects of the cannabinoids CBD, CBDV and THCV on human skeletal muscle precursor cell differentiation qPCR analysis was used.
In particular, skeletal muscle cell differentiation was quantified by measuring the transcript levels of myogenin (Myog), Troponin (Tnnt-1) and Myosin Heavy Chain (MyHC). All of which are widely considered muscle-specific markers, required for myotube formation.

For test [3] the test system is unchanged. Put plainly: Phase contrast microscopy of differentiating primary human satellite cells. It is filed as cell-based. Conditions: for Morphology of differentiating SC with respect to vehicle (DMSO) control: after 4 and 5 days of exposure to DM. On the procedure:
as §6, §7
Differentiating primary human satellite cells were also examined in phase contrast mode by means of conventional light microscopy. […] In particular, after 5 days of incubation in the presence of phytocannabinoids, the cells appeared more fused and with mature myotubes being larger in size.

Test [4] in a line: Body mass of mdx mice over 16 weeks. It is filed as in vivo, mouse. The settings on record: for Total body mass / Total body mass, difference to vehicle: at week 15, CBD 120 mg/kg/day, DFZ 1.2 mg/kg/day. On the procedure:
(§8) Mdx mice were bred and housed according to Home Office regulations. At 6 weeks of age groups of female mdx mice (control n=18, deflazcort n=18, CBD n=19) were acclimatised to 3.5% Kolliphor/water (v/v) in drinking water.
(§9) Control groups were maintained on 3.5% Kolliphor for the duration of the study. Deflazacort (DFZ) groups were maintained on 3.5% Kolliphor for 2 weeks and then maintained on 1.2 mg/kg/day DFZ in 3.5% Kolliphor for 16 weeks (n=8).
(§10) CBD groups were acclimatised to 3.5% Kolliphor for 7 days. On day 7, 3.5% Kolliphor was supplemented with CBD at 75 mg/kg/day for 3 days; CBD was then increased to 120 mg/kg/day for 16 weeks (n=8).
Mice and bottles were weighed twice weekly to monitor body mass and consumption. Mice are housed in groups, therefore average consumption is calculated.

The subject of test [5] is Mdx mice. Put plainly: CD8 positive cells in spleens of mdx mice at week 4. The settings on record: spleen. It is filed as in vivo, mouse. Here is the method: as §8, §9, §10
Spleens were recovered at week 4 and CD8 positive cells were analysed.

Test [6] deals with Mouse C2C12 myoblasts. Briefly: Western blot analysis of MyHC protein in differentiating C2C12 cells. It is filed as cell-based. Conditions: 72 h exposure to DM+1 μM CBD, relative to control conditions. On the procedure:
as §1, §2
Cells were washed two times in cold PBS and lysed with lysis solution (150 mM NaCl, 1 mM EDTA, pH 7.4, 10 mM Tris-HCl, pH 8, 1% SDS, and protease inhibitors). Lysates (50-60 ug) were boiled 5 min in Laemmli SDS loading buffer and separated by 8% SDS-polyacrylamide gel electrophoresis. Filters were incubated overnight at 4° C. with a mouse anti-MyHC (dilution, 1:1000; Millipore).
An anti-tubulin antibody (dilution, 1:5000; Sigma-Aldrich) was used to check for equal protein loading. Reactive bands were detected by chemiluminescence (ECL-plus; GE Healthcare). Images were analysed on a ChemiDoc station with Quantity one software (Bio-Rad, Segrate, Italy).
The effect of CBD 1 μM on myotube formation was confirmed by western blot analysis.
A general note: A western blot detects proteins with antibodies after separation by electrophoresis.

For test [7], the system named is Mouse C2C12 myoblasts. Briefly: Short-term (10 min) CBD exposure of differentiating C2C12 myoblasts, qPCR. The format is cell-based. The settings on record: DM+1 μM for 10 min. On the procedure:
as §1, §2, §3, §4, §5
The potential effect of short term CBD exposure at 1 μM on differentiating C2C12 cells was also tested.
The day after plating, C2C12 myoblasts were exposed to DM in presence or not of 1 μM CBD for 10 min.

For test [8], the system named is Mdx mice. Put plainly: Real time PCR of gastrocnemius muscle of mdx mice at week 4. The format is in vivo, mouse. Here is the method:
as §8, §9, §10
Gastrocnemius muscle was recovered at week 4 and relative gene expressions were determined.
RNA was extracted from cells following treatment with CBD. Control RNA was extracted from the control group (RNeasy kit, Qiagen). 2 μg of RNA from each sample was reversed transcribed using oligo dT primers (rt nanoscript 2, Primer Design).
Stable endogenous control genes (Pak1lip1, Htatfs1) were identified using the mouse GeNorm Kit qbase+software (Primer Design).
Real time PCR was conducted using SYBR green (Life Technologies) on an AB Biosystems Thermocycler. All real time PCR experiments were conducted with the following reaction conditions. Initial 95° C. 10 mins, followed by 40 cycles of 95° C. for 15 secs, 60° C. for 1 min, followed by melt curve analysis.
Relative levels of gene expression were determined using the standard curve method and are expressed relative to the average of the endogenous controls.

Regarding `C=C(C)[C@@H]1CCC(C)=C[C@H]1c1c(O)cc(CCC)cc1O` [CBDV, Cannabidivarin], in test [1] (1 μM), the “Myogenin (Myog) mRNA expression level” value was “significant increase” and the “Troponin (Tnnt-1) mRNA expression level” value was “significant increase”. For the same compound, in test [1] (3 μM), the “Myogenin (Myog) mRNA expression level” value is “significant increase” and the “Troponin (Tnnt-1) mRNA expression level” value is “significant increase”. Moreover, in test [2] (3 μM), the MyHC transcript level result is recorded as “significantly increased”, the Myog transcript level result is “significantly increased” and the Tnnt-1 transcript level result is reported as “significantly increased”. In addition, in test [3] (3 μM), the “Morphology of differentiating SC with respect to vehicle (DMSO) control” value (“Morphology of differentiating SC” for short) was “clear morphological differences”.

As for `CCCc1cc(O)c2c(c1)OC(C)(C)[C@@H]1CCC(C)=C[C@@H]21` [THCV, Tetrahydrocannabivarin], in test [1] (1 μM), the “Myogenin (Myog) mRNA expression level” value was “did not produced significant effects” and the “Troponin (Tnnt-1) mRNA expression level” value is listed as “did not produced significant effects”. Also, in test [1] (3 μM), the “Myogenin (Myog) mRNA expression level” value was “did not produced significant effects” and the “Troponin (Tnnt-1) mRNA expression level” value is on record as “did not produced significant effects”. In test [2] (3 μM), the MyHC transcript level entry is recorded as “significantly increased”, the Myog transcript level entry is recorded as “significantly increased” and the Tnnt-1 transcript level entry is recorded as “significantly increased”. For the same compound, in test [3] (3 μM), the “Morphology of differentiating SC” value is given as “clear morphological differences”. In test [3] (after 5 days of incubation, CBD 1 μM, CBDV and THCV 3 μM), the “Cell fusion and size of mature myotubes” value is “more appreciable”.

`C=C(C)[C@@H]1CCC(C)=C[C@H]1c1c(O)cc(CCCCC)c(C(=O)O)c1O` [CBDA, Cannabidiolic acid]: in test [1] (1 μM), the “Myogenin (Myog) mRNA expression level” value is “significantly reduced” and the “Troponin (Tnnt-1) mRNA expression level” value is “significantly reduced”. For the same compound, in test [1] (3 μM), the “Myogenin (Myog) mRNA expression level” value is given as “significantly reduced” and the “Troponin (Tnnt-1) mRNA expression level” value is recorded as “significantly reduced”.

For `CC(=O)OCC(=O)[C@@]12N=C(C)O[C@@H]1C[C@H]1[C@@H]3CCC4=CC(=O)C=C[C@]4(C)[C@H]3[C@@H](O)C[C@@]12C` [deflazacort, Deflazacort, reference compound], in test [4], the Total body mass is on record as 26.26 g and the “Total body mass, difference to vehicle” value worked out at 15.8%. For the same compound, in test [4] (up to week 4, deflazacort 1.2 mg/kg/day in drinking water), the “Total body mass, lighter than vehicle and CBD groups” value is reported as 8.9%. For the same compound, in test [5], the “Effect on total percentage CD8 population” value is recorded as “unaffected”.

`CCCCCc1cc(O)c(C/C=C(\C)CCC=C(C)C)c(O)c1` [CBG, Cannabigerol]: in test [1] (3 μM), the “Myogenin (Myog) mRNA expression level” value is “significantly reduced” and the “Troponin (Tnnt-1) mRNA expression level” value was “significantly reduced”.

For `C=C(C)[C@@H]1CCC(C)=C[C@H]1c1c(O)cc(CCCCC)cc1O` [CBD, Cannabidiol], in test [1] (1 μM), the “Myogenin (Myog) mRNA expression level” value is reported as “significant increase” and the “Troponin (Tnnt-1) mRNA expression level” value was “significant increase”. Also, the “Myosin Heavy Chain (MyHC) protein expression” value in test [6] is recorded as “significantly increased”. Moreover, in test [7] (then DM without drug for 3 h), the Myog transcript level entry is given as “significantly higher” and the Tnnt-1 transcript level result is reported as “significantly higher”. In test [7] (then DM without drug for 24 h), the Myog transcript level entry is on record as “significantly higher” and the Tnnt-1 transcript level entry is “significantly higher”. In test [2] (1 μM), the MyHC transcript level result is recorded as “significantly increased”, the Myog transcript level result is recorded as “significantly increased” and the Tnnt-1 transcript level entry was “significantly increased”. Besides, the “Morphology of differentiating SC” value in test [3] (1 μM) was “clear morphological differences”. Also, in test [4], the Total body mass was 29.42 g and the “Total body mass, difference to vehicle” value was 5.6%. The “Total body mass compared with vehicle group” value in test [4] (up to week 4, CBD 120 mg/kg/day in drinking water) is recorded as “did not differ”. In addition, in test [8] (n=4), the “Mitochondrially encoded NADH dehydrogenase 2 (MT-ND2) relative gene expression, upregulation” value was 253.2%. Also, in test [8] (n=9), the “PGC1a relative gene expression, upregulation” value is reported as 125.8% and the “Sirtuin-1 (Sirt1) relative gene expression, upregulation” value is recorded as 84.9%. The “Total percentage CD8 population, difference to vehicle” value in test [5] (n=9) was determined as 19.7%. In addition, the “Total percentage CD8 population” value in test [5] (n=9, vehicle 10.9%) came out at 8.7%.
